The values that follow come from ChEMBL document CHEMBL3588753, “Recent progress in the drug development of coumarin derivatives as potent antituberculosis agents” (2015).

Converted amounts (≈) assume the structure as drawn.

One may read the inhibition as the change of the read-out against control, counted positive when it falls. By MIC is commonly meant the least concentration at which growth counts as inhibited.

Holding throughout (assay type): functional
Assay [1] relates to Mycobacterium tuberculosis. In words: Antimycobacterial activity against Mycobacterium tuberculosis H37Rv assessed as growth inhibition by Alamar Blue staining-based broth microdilution assay. The arrangement: inhibition (INH): concentration or dose not given beside the values. The conditions noted are these: for MIC: Mycobacterium tuberculosis, H37Rv.
Assay [2] deals with Mycobacterium tuberculosis. Kind of assay: Antimycobacterial activity against Mycobacterium tuberculosis H37Rv assessed as growth inhibition at 6.25 ug/ml by Alamar Blue staining-based broth microdilution assay. (In general: The colour change of resazurin is a common sign of viable cells or microbes.)
Assay [3] relates to Mycolicibacterium smegmatis. Kind of assay: Antimicrobial activity against Mycobacterium smegmatis.
For assay [4], the system named is Mycobacterium tuberculosis. In words: Ratio of 8-OCH3 IC50 to compound IC50 Mycobacterium tuberculosis H37Rv assessed as growth inhibition.
For assay [5], the system named is Mycobacterium tuberculosis. Kind of assay: Ratio of CPFX IC50 to compound IC50 Mycobacterium tuberculosis H37Rv assessed as growth inhibition.
The test system of assay [6] is Mycobacterium tuberculosis. In words: Ratio of MXFX IC50 to compound IC50 Mycobacterium tuberculosis H37Rv assessed as growth inhibition.
Assay [7] relates to Mycobacterium tuberculosis. Kind of assay: Ratio of RIF IC50 to compound IC50 Mycobacterium tuberculosis H37Rv assessed as growth inhibition.
For assay [8], the system named is Mycobacterium tuberculosis. Kind of assay: Ratio of GTFX IC50 to compound IC50 Mycobacterium tuberculosis H37Rv assessed as growth inhibition.
The subject of a further assay is Mycolicibacterium phlei. Kind of assay: Antimycobacterial activity against Mycobacterium phlei.
Assay [9] has as its system Mycobacterium tuberculosis. Kind of assay: Antimycobacterial activity against Mycobacterium tuberculosis H37Rv assessed as growth inhibition at 128 ug/ml by Alamar Blue staining-based broth microdilution assay.
Assay [10] relates to Mycobacterium tuberculosis. In words: Antimycobacterial activity against Mycobacterium tuberculosis H37Rv assessed as growth inhibition at 128 ug/ml by low-oxygen recovery assay.
Assay [11] concerns Mycolicibacterium fortuitum. In words: Antimycobacterial activity against Mycobacterium fortuitum.

Take `N#Cc1c(/C=C/c2cccc(-c3ccccc3)c2)c2cc(Cl)ccc2oc1=O`: the “inhibition (INH)” value in assay [1] worked out at 72%.

As to `O=c1oc2ccccc2c(O)c1C1=Nc2ccccc2SC(c2ccc([N+](=O)[O-])cc2)C1` (centres undefined), the inhibition at 6.25 µg/mL in assay [2] was determined as 93%.

For `O=c1oc2ccccc2c(O)c1C1=Nc2ccccc2SC(c2c[nH]c3ccccc23)C1` (centres undefined), the inhibition at 6.25 µg/mL in assay [2] was 80%.

As to `O=c1cc(Nc2ccc3ccccc3c2)c2ccccc2o1`, the inhibition at 6.25 µg/mL in assay [2] is 81%.

Turning to `COc1ccc2cc(C(=O)CN3CCN(c4c(F)cc5c(=O)c(C(=O)O)cn(C6CC6)c5c4OC)CC3)c(=O)oc2c1`, the MIC is 0.25 µg/mL (≈ 0.433 µM) in assay [1] and 6.25 µg/mL (≈ 10.8 µM) in [3]. Also, the “Ratio IC50” value in assay [4], in assay [5], in assay [6], in assay [7] and in assay [8] was 2 in each case.

For the compound `O=C(Cc1cc(=O)oc2cc(O)ccc12)N/N=C/c1cccc([N+](=O)[O-])c1`, the “inhibition (INH)” value in assay [1] stood at 93%.

For `O=C(CSc1nnc(-c2cc3ccccc3oc2=O)o1)Nc1nc2ccc(Br)cc2s1`, in [1], the “inhibition (INH)” value turned out to be 99% and the MIC is 12.5 µg/mL (≈ 24.3 µM).

Regarding `COc1cc2ccc(=O)oc2cc1O` [SCOPOLETIN], the MIC in assay [1] was found to be 42.1 µg/mL (≈ 219 µM).

`C/C(=C\CC/C(C)=C/CC/C(C)=C/Cc1c(O)c2ccccc2oc1=O)CO`: the MIC (in [3]; against Mycolicibacterium phlei) was 16 µg/mL (≈ 41.8 µM) each time.

For `O=c1ccc2c(O)c3ccoc3cc2o1` [BERGAPTOL], the MIC in assay [1] is 100 µg/mL (≈ 495 µM).

For the compound `CN(C)c1ccc(/C=C/c2c(C#N)c(=O)oc3ccc(Cl)cc23)cc1`, the “inhibition (INH)” value in assay [1] worked out at 79%.

Regarding `COc1ccc(-c2cc(-c3ccc(Nc4cc(=O)oc5ccccc45)cc3)nc(N)c2C#N)cc1OC`, in assay [1], the “inhibition (INH)” value amounted to 99% and the minimum inhibitory concentration (MIC) is 12.5 µg/mL (≈ 25.5 µM).

In the case of `O=C(CSc1nnc(-c2cc3ccccc3oc2=O)o1)Nc1ccc(I)cc1`, in assay [1], the “inhibition (INH)” value is reported as 99% and the MIC turned out to be 12.5 µg/mL (≈ 24.7 µM).

For `Cc1cc(=O)oc2cc(OCc3cn(Cc4cc(=O)oc5ccc6ccccc6c45)nn3)ccc12`, the MIC in [1] came out at 6.25 µg/mL (≈ 13.4 µM).

Take `Cc1cc(=O)oc2cc(OCc3cn(Cc4cc(=O)oc5cc(Cl)ccc45)nn3)ccc12`: in assay [1], the MIC is 6.25 µg/mL (≈ 13.9 µM).

For the compound `COc1ccc2ccc(=O)oc2c1C(CO)=C(C)C`, in assay [1], the MIC was determined as 50 µg/mL (≈ 192 µM).

As to `Cc1cc(=O)oc2cc(OCc3cn(Cc4cc(=O)oc5ccc(Cl)cc45)nn3)ccc12`, the MIC in [1] turned out to be 6.25 µg/mL (≈ 13.9 µM).

Turning to `N#Cc1c(/C=C/c2c3ccccc3cc3ccccc23)c2cc(Cl)ccc2oc1=O`, the “inhibition (INH)” value in [1] was found to be 81%.

Regarding `C=CC(C)(C)c1c2c(c(O)c3ccc(=O)oc13)C(=O)CC(C)(C)O2`, the MIC in assay [1] is 200 µg/mL (≈ 609 µM).

Take `COc1cccc2cc(-c3ccc(C(=O)c4cc(C)ccc4O)cn3)c(=O)oc12`: the MIC in assay [1] is 62.5 µg/mL (≈ 161 µM).

Turning to `Cc1ccc(O)c(C(=O)c2ccc(-c3cc4ccccc4oc3=O)nc2)c1`, the MIC in assay [1] is 100 µg/mL (≈ 280 µM).

With `COc1cc(/C=C/c2c(C#N)c(=O)oc3ccc(Cl)cc23)cc(OC)c1OC`, the “inhibition (INH)” value in assay [1] was found to be 87%.

Take `Cc1ccc(C)c2c(CC(=O)N/N=C/c3ccccc3[N+](=O)[O-])cc(=O)oc12`: the “inhibition (INH)” value in assay [1] is reported as 65%.

Take `COc1ccc(C2NC(=O)Nc3c2c(=O)oc2ccc(C)cc32)cc1` (centres undefined): the inhibition at 128 µg/mL was determined as 58% in assay [9] and 62% in assay [10].

Consider `CC(=O)OC/C(C)=C/CC/C(C)=C/CC/C(C)=C/Cc1c(O)c2ccccc2oc1=O`, for which the MIC (in [3]; in the assay with Mycolicibacterium phlei) was 8 µg/mL (≈ 18.8 µM) throughout.

With `O=C(N/N=C/c1ccc([N+](=O)[O-])cc1)c1cc2ccccc2oc1=O`, the minimum inhibitory concentration (MIC) in assay [1] is 100 µg/mL (≈ 296 µM).

As for `O=C(CN1CCN(c2cc3c(cc2F)c(=O)c(C(=O)O)cn3C2CC2)CC1)c1cc2ccc(O)cc2oc1=O`, the MIC in assay [1] stood at 0.5 µg/mL (≈ 0.937 µM); in assay [3], 3.12 µg/mL (≈ 5.85 µM).

On to `COc1cc2oc(=O)ccc2cc1[C@H]1OC(=O)[C@]2(C)O[C@H]12`, for which the minimum inhibitory concentration (MIC) in assay [1] was determined as 50 µg/mL (≈ 173 µM).

With `CC(C)=CCC/C(C)=C/CC/C(C)=C/Cc1c(O)c2ccccc2oc1=O`, the figures for the MIC in assay [3] and in assay [11] were 0.5 µg/mL (≈ 1.36 µM) and 2 µg/mL (≈ 5.46 µM), respectively.

Take `COc1c2c(cc3oc(=O)c(-c4ccc(O)cc4)c(O)c13)OC(C)(C)C=C2`: the MIC in [3] came to 18 µg/mL (≈ 49.1 µM).

With `O=C(N/N=C/c1cccc(O)c1)c1cc2ccccc2oc1=O`, the MIC in assay [1] came to 50 µg/mL (≈ 162 µM).

In the case of `Cc1cc2oc(=O)cc(Nc3ccc4ccccc4c3)c2cc1Cl`, the inhibition at 6.25 µg/mL in [2] came to 100%.

As to `O=C(c1ccncc1)n1nc(-c2ccc(F)cc2)cc1-c1cc2ccccc2oc1=O`, in [1], the “inhibition (INH)” value came to 80.09% and the MIC was determined as 0.625 µg/mL (≈ 1.52 µM).

Turning to `Cc1ccc(C)c2c(CC(=O)N/N=C/c3ccccc3)cc(=O)oc12`, in assay [1], the “inhibition (INH)” value stood at 70%.

`C=CC(C)(C)c1c2c(c(OC)c3ccc(=O)oc13)C=CC(C)(C)O2` [DENTATIN]: in assay [1], the MIC came out at 50 µg/mL (≈ 153 µM).

Turning to `C=CC(C)(C)c1c(O)c2c(c3ccc(=O)oc13)OC(C)(C)C=C2`, the minimal inhibitory concentration (MIC) in [1] stood at 100 µg/mL (≈ 320 µM).

Consider `O=c1oc2ccccc2c(O)c1C1=Nc2ccccc2SC(c2ccccc2O)C1` (centres undefined), for which the inhibition at 6.25 µg/mL in [2] worked out at 94%.

`COc1ccc(C2NC(=O)Nc3c2c(=O)oc2ccc(C)cc32)cc1OC` (centres undefined): the results for the inhibition at 128 µg/mL in assay [9] and in assay [10] were 55% and 35%, respectively.

Regarding `C/C(=C\CC/C(C)=C/Cc1c(O)c2ccccc2oc1=O)CC/C=C(\C)COC(=O)c1ccccc1`, the MIC (in [3]; in the assay with Mycolicibacterium phlei) was 2 µg/mL (≈ 4.11 µM) each time.

For `O=C1Nc2c(c(=O)oc3ccccc23)C(c2ccccc2O)N1` (centres undefined), the inhibition at 128 µg/mL turned out to be 45% in assay [9] and 37% in [10].

Regarding `Cc1ccc(O)c(C(=O)c2ccc(-c3cc4cc(Br)ccc4oc3=O)nc2)c1`, the MIC in [1] was determined as 100 µg/mL (≈ 229 µM).
